US11925616B2, “Compositions comprising urolithin compounds” (Amazentis SA, priority 2015, dated 2024)

Tests used:
in vivo = test: in vivo; parameters: species or system male Sprague-Dawley rats; conditions: male, Sprague-Dawley, rat, po, 25 mg/kg
Protocol: The solutions for gavage were prepared as follows: 35 mg of urolithin A powder was diluted in 7 ml of 15% DMSO, 0.5% methyl cellulose/0.25% Tween 80 in water, resulting in a 5 mg/ml fine suspension. The DMSO was obtained from BDH, methyl cellulose was obtained from Sigma, and Tween 80 was obtained from Sigma-Aldrich.
Blood was collected from the rats by jugular vein cannulation at different time points, and urolithin A was quantified in the plasma to determine its pharmacokinetic profile following oral gavage of Sample #1, Sample #2, and Sample #3. The study was repeated on three rats for each sample. […]

[1] = Particle size determinations for urolithin A; format: physicochemical; conditions: for D10 / D50 / D90: Malvern Particle Size analyzer, before and after micronization
Protocol: The particle size of urolithin A was reduced in a controlled manner using an MC50 Spiral Jetmill, using filtered nitrogen, with a feed rate of 240 g/hr, a Venturi pressure of 12 bar, and a mill pressure of 12 bar. Different particle size distributions of urolithin A were determined on a Malvern Particle Size analyzer (Malvern Instruments, UK). Three samples were evaluated in depth.

myotubes = conditions: in vitro; cited from earlier work
[2] = micronized urolithin used in the formulations of Example 1

| Compound | Cmax (in vivo) | Relative Cmax (% of non-micronized Cmax) (in vivo) | Relative bioavailability (% AUC of non-micronized urolithin A) (in vivo) | AUC (in vivo; AUC) | Tmax (in vivo; Tmax (h)) | D10 [1] | D50 [1] | D90 [1] | AUC (in vivo) | Tmax (in vivo) | fold increase in the Cmax in comparison to Sample #1 (in vivo) | increase in the AUC in comparison to Sample #1 (in vivo) | relative increase in the Cmax in comparison to Sample #1 (in vivo) | D10, actual particle size [1, 2] | D50, actual particle size [1, 2] | D90, actual particle size [1, 2] | effect on mean diameter of myotubes (myotubes) |
| --- | --- | --- | --- | --- | --- | --- | --- | --- | --- | --- | --- | --- | --- | --- | --- | --- | --- |
| O=c1oc2cc(O)ccc2c2ccc(O)cc12 [Sample #1, Urolithin A] | 17.1 ng/mL | 100% | 100% | 75.1 ng·h/mL | 15 min | 1.03 μm | 53.4 μm | 365 μm | – | – | – | – | – | – | – | – | – |
| O=c1oc2cc(O)ccc2c2ccccc12 [Urolithin B] | – | – | – | – | – | – | – | – | – | – | – | – | – | – | – | – | increased the mean diameter of myotubes |

Continued, in another order:

| Cmax (in vivo) | Relative Cmax (% of non-micronized Cmax) (in vivo) | Relative bioavailability (% AUC of non-micronized urolithin A) (in vivo) | AUC (in vivo; AUC) | Tmax (in vivo; Tmax (h)) | D10 [1] | D50 [1] | D90 [1] | AUC (in vivo) | Tmax (in vivo) | fold increase in the Cmax in comparison to Sample #1 (in vivo) | increase in the AUC in comparison to Sample #1 (in vivo) | relative increase in the Cmax in comparison to Sample #1 (in vivo) | D10, actual particle size [1, 2] | D50, actual particle size [1, 2] | D90, actual particle size [1, 2] | Compound | effect on mean diameter of myotubes (myotubes) |
| --- | --- | --- | --- | --- | --- | --- | --- | --- | --- | --- | --- | --- | --- | --- | --- | --- | --- |
| 37 ng/mL | 216% | 128% | – | – | 0.272 μm | 2.17 μm | 6.84 μm | 96.2 ng·h/mL | 19.8 min | 2.16 fold | 28% | 116% | – | – | – | O=c1oc2cc(O)ccc2c2ccc(O)cc12 [Sample #2, Urolithin A] | – |
| 17.4 ng/mL | 102% | 126% | – | – | 0.597 μm | 5.67 μm | 40.1 μm | 94.8 ng·h/mL | 30 min | – | 26% | – | – | – | – | O=c1oc2cc(O)ccc2c2ccc(O)cc12 [Sample #3, Urolithin A] | – |
| – | – | – | – | – | – | – | – | – | – | – | – | – | 0.7 μm | 3.9 μm | 11.5 μm | O=c1oc2cc(O)ccc2c2ccc(O)cc12 [Urolithin A] | not seen |
